Test results reported in patent US20190345138A1, “HETEROCYCLIC AMIDES AS KINASE INHIBITORS” (GlaxoSmithKline Intellectual Property Development Limited, priority 2016, published 2019).
Several values for one entry are separate records, joined by “and”; a condition that tells them apart may be missing. Identical values can stand only once.

Assays:
RIP1 kinase = target: T1, RIP1 kinase (Homo sapiens, UniProt Q13546); assay: fluorescent polarization based binding assay; settings: mean of a minimum of 2 experiments
T1 sequence (Q13546 1-375 limits assumed): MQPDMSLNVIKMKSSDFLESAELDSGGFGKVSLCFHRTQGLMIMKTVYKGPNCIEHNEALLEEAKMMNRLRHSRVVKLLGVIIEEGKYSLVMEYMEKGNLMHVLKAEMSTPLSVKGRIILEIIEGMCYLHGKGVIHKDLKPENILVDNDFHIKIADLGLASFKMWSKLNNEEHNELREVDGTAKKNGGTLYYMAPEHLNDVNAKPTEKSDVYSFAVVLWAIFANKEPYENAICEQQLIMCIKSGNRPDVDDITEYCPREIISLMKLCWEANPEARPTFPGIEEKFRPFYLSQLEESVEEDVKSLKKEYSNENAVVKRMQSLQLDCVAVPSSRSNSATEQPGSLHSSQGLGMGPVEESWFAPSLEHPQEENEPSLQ
From the text: A fluorescent polarization based binding assay was used to assess the activity of the compounds of this invention, the details of which are disclosed in International Patent Appln. No. PCT/IB2014/059004, now, International Patent Appln. Pub.

[1] = tested on: mouse L929 fibrosarcoma cells; assay: necroptosis assay in L929 cells; format: cell-based; settings: L929 cells, viability by cellular ATP (Cell Titer-Glo), read-out: pIC50, inhibited necrosis in L929 cells (converted)
Procedure: The efficacy of RIP1 inhibitors can be tested […] in vitro using a human monocytic leukemia U937 or mouse L929 fibrosarcoma cells in a necroptosis assay. As determined using the method described in S. He et al., Cell, 137(6):1100-1111 (2009) and International Patent Appln. No. PCT/IB2014/059004, now, International Patent Appln. Pub.
Viability was measured by quantitating cellular levels of ATP using the Cell Titer-Glo kit. All data are means±standard deviation of the mean.

[2] = tested on: TNF-driven systemic inflammatory response syndrome model; assay: TNF-driven systemic inflammatory response syndrome model (TNF/zVAD or TNF alone), temperature loss; format: in vivo; settings: Mus musculus, po, pre-dosed 15 minutes before i.v. mouse TNF alone or with zVAD; for inhibition in vivo at 10 mg/kg: 10 mg/kg PO; for inhibition in vivo at 3 mg/kg: 3 mg/kg PO
From the text: The efficacy of RIP1 inhibitors can be tested in mice in vivo using a TNF-driven systemic inflammatory response syndrome model (L. Duprez et al. Immunity 35(6):908-918, (2011)) using TNF plus the caspase inhibitor zVAD or TNF alone. The TNF/zVAD model is terminated at ˜3 hrs and the TNF alone model is terminated at ˜8 hrs (under IACUC guidelines for temperature loss). TNF (or TNF/zVAD) induced manifestations include temperature loss, the production of numerous cytokines (including IL-6, IL-1b, MIP1β and MIP2) in the periphery, liver and intestinal inflammation and an increase of markers of cellular (LDH and CK) and liver damage (AST and ALT) in the serum. Inhibition of these TNF alone or TNF/zVAD induced manifestations can be shown by PO pre-dosing with selected compounds. For example, mice (8 mice per group) were pre-dosed PO with vehicle or compound 15 minutes before i.v. administration of mouse TNF (30 μg/mouse) alone or in combination with zVAD (0.4 mg/mouse) simultaneously. Temperature loss in the mice was measured by rectal probe. The study was terminated when the control group lost 7 degrees, per our IACUC protocol. All data are shown as means±standard error of the mean.

[3] = tested on: human monocytic leukemia U937 cells; assay: necroptosis assay in U937 cells; format: cell-based; settings: viability by cellular ATP (Cell Titer-Glo)
In short: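 Necroptosis was induced in human U937 or mouse L929 cells, and viability was quantified as cellular ATP with Cell Titer-Glo. Data are means±standard deviation.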

[4] = background statement; cited from earlier work

Compound | IC50 (RIP1 kinase) | IC50 [1] [nM] | inhibition in vivo at 10 mg/kg [2] [%] | further results
NC(=O)c1cc(N2CCC(C(=O)N3N=CC[C@H]3c3ccccc3)CC2)ncn1 [Example 32, (S)-6-(4-(5-phenyl-4,5-dihydro-1H-pyrazole-1-carbonyl)piperidin-1-yl)pyrimidine-4-carboxamide] | 1 to 31.6 nM and 1 to 10 nM and ~10 nM | ~316 | 104 | –
N#Cc1cccc([C@@H]2CC=NN2C(=O)C2CCN(c3nccc(C(N)=O)n3)CC2)c1 [Example 71, (S)-2-(4-(5-(3-cyanophenyl)-4,5-dihydro-1H-pyrazole-1-carbonyl)piperidin-1-yl)pyrimidine-4-carboxamide] | 1 to 31.6 nM and ~15.8 nM | ~794 | 93 | –
NC(=O)c1cc(N2CCC(C(=O)N3N=CC[C@H]3c3cc(F)cc(F)c3)CC2)ncn1 [Example 85, (S)-6-(4-(5-(3,5-difluorophenyl)-4,5-dihydro-1H-pyrazole-1-carbonyl)piperidin-1-yl)pyrimidine-4-carboxamide] | 1 to 31.6 nM and 1 to 10 nM and ~10 nM | ~316 | – | inhibition in vivo at 3 mg/kg [2]: 88%
NC(=O)c1cc(N2CCC(C(=O)N3N=CC[C@H]3c3cncc(F)c3)CC2)ncn1 [Example 108, (S)-6-(4-(5-(5-fluoropyridin-3-yl)-4,5-dihydro-1H-pyrazole-1-carbonyl)piperidin-1-yl)pyrimidine-4-carboxamide] | 1 to 31.6 nM and ~31.6 nM | ~10000 | 54 | pIC50, inhibited necrosis in U937 cells ([3]; U937 cells): ~7.3; inhibition in vivo at 0.1 mg/kg ([2]; 0.1 mg/kg PO): -4%; inhibition in vivo at 1 mg/kg ([2]; 1.0 mg/kg PO): -11%; inhibition in vivo at 100 mg/kg ([2]; 100 mg/kg PO): 94%
NC(=O)c1ccnc(N2CCC(C(=O)N3N=CC[C@H]3c3cncc(F)c3)CC2)n1 [Example 109, (S)-2-(4-(5-(5-fluoropyridin-3-yl)-4,5-dihydro-1H-pyrazole-1-carbonyl)piperidin-1-yl)pyrimidine-4-carboxamide] | 1 to 31.6 nM and ~25.1 nM | ~251 | – | inhibition in vivo at 3 mg/kg [2]: 84%
NC(=O)c1cnc(N2CCC(C(=O)N3N=CC[C@H]3c3ccccc3)CC2)nc1 [Example 131, (S)-2-(4-(5-phenyl-4,5-dihydro-1H-pyrazole-1-carbonyl)piperidin-1-yl)pyrimidine-5-carboxamide] | ~39.8 nM | ~3980 | 83 | IC50 ([3]; Homo sapiens, U-937, U937 cells, read-out: pIC50, inhibited necrosis in U937 cells (converted)): ~158 nM
CN1C(=O)C(Cc2c[nH]c3ccccc23)NC1=S (stereo not drawn) [Necrostatin-1] | – | – | – | oral bioavailability [4]: poor
